In this test the target is BRAF^V600E protein (Homo sapiens, UniProt P15056, V600E). Briefly: HiBiT cellular BRAF V600E degradation assay. Type of test: cell-based. The note with it: 24 h incubation; for DC50: A375.10 cells (HiBiT tag knocked in at N-terminal of BRAF V600E), concentration at which 50% of total cellular BRAF V600E is degraded; for Emax: read-out: HiBit 24 h Emax.
Setting [1] is: A375.10 cells, Emax = amount of residual protein remaining in the cell after compound treatment.

Each structure is given as a SMILES string. Counter-ions that a name gives are not always drawn.

BRAF^V600E protein, sequence (P15056 whole entry V600E): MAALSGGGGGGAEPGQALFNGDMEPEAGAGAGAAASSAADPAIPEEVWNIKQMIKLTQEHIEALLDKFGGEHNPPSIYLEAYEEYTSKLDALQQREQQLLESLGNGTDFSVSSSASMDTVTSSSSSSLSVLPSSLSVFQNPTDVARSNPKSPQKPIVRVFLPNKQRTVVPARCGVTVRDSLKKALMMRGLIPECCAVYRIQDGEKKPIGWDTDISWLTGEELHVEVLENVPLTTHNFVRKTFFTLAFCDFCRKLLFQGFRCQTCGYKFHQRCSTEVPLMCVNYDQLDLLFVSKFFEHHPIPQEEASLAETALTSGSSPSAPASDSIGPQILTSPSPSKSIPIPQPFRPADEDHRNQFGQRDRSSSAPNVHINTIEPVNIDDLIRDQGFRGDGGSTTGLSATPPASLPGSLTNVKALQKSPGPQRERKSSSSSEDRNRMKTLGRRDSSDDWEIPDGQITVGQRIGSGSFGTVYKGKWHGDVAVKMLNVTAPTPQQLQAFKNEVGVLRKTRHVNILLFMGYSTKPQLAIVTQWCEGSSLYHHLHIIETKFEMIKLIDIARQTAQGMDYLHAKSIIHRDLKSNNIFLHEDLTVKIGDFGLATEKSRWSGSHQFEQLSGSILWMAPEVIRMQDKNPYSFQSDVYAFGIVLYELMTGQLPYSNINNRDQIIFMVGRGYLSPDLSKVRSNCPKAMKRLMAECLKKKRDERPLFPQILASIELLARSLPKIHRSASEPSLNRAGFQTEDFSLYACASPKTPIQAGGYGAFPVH

`CCN(C)S(=O)(=O)Nc1ccc(F)c(C(=O)c2c[nH]c3ncc(-c4cc(F)c(N5CCN(C(=O)CN6CCC(c7ccc(NC8CCC(=O)NC8=O)cc7)CC6)CC5)c(F)c4)cc23)c1F` (centres unmarked) [Example 93, 5-[4-[4-[2-[4-[4-[(2,6-dioxo-3-piperidyl)amino]phenyl]-1-piperidyl]acetyl]piperazin-1-yl]-3,5-difluoro-phenyl]-3-[3-[[ethyl(methyl)sulfamoyl]amino]-2,6-difluoro-benzoyl]-1H-pyrrolo[2,3-b]pyridine] yielded a DC50 of 23.8 nM. In addition, the Emax under setting [1] is 8.31%.
For the molecule `CCCS(=O)(=O)Nc1ccc(F)c(C(=O)c2c[nH]c3ncc(-c4ccc(N5CCN(C(=O)CN6CCC(c7ccc(NC8CCC(=O)NC8=O)cc7)CC6)CC5)nc4)cc23)c1F` (centres unmarked) [Example 3, N-[3-[5-[6-[4-[2-[4-[4-[(2,6-dioxo-3-piperidyl)amino]phenyl]-1-piperidyl]acetyl]piperazin-1-yl]-3-pyridyl]-1H-pyrrolo[2,3-b]pyridine-3-carbonyl]-2,4-difluoro-phenyl]propane-1-sulfonamide], the DC50 is 3.04 nM. For the same molecule, the Emax under setting [1] was found to be 9.6%.
The matching figures for `CCN(C)S(=O)(=O)Nc1ccc(F)c(C(=O)c2c[nH]c3ncc(-c4ccc(N5CCN(C(=O)CC6(O)CCN(c7ccc(NC8CCC(=O)NC8=O)cc7F)CC6)CC5)c(C(F)(F)F)c4)cc23)c1F` (centres unmarked) [Example 212, 5-[4-[4-[2-[1-[4-[(2,6-dioxo-3-piperidyl)amino]-2-fluoro-phenyl]-4-hydroxy-4-piperidyl]acetyl]piperazin-1-yl]-3-(trifluoromethyl)phenyl]-3-[3-[[ethyl(methyl)sulfamoyl]amino]-2,6-difluoro-benzoyl]-1H-pyrrolo[2,3-b]pyridine]: 32.8 nM and 7.02%.
Taken in the same sequence, the figures for `CCN(C)S(=O)(=O)Nc1ccc(F)c(C(=O)c2c[nH]c3ncc(-c4cnc(N5CCN(C(=O)CN6CCC(c7ccc(N[C@H]8CCC(=O)NC8=O)cc7)CC6)CC5)nc4)cc23)c1F` (single isomer, unassigned) [Example A111] were 4 nM and 7%.
The matching figures for `CCN(C)S(=O)(=O)Nc1ccc(F)c(C(=O)c2c[nH]c3ncc(-c4cnc(N5CCN(C(=O)CN6CCN(c7ccc(OC8CCC(=O)NC8=O)cn7)CC6)CC5)nc4)cc23)c1F` (centres unmarked) [Example A68, 5-[2-[4-[2-[4-[5-(2,6-Dioxopiperidin-3-yl)oxypyridin-2-yl]piperazin-1-yl]acetyl]piperazin-1-yl]pyrimidin-5-yl]-3-[3-[[ethyl(methyl)sulfamoyl]amino]-2,6-difluorobenzoyl]-1H-pyrrolo[2,3-b]pyridine]: 50 nM and 11%.
`CCN(C)S(=O)(=O)Nc1ccc(F)c(C(=O)c2c[nH]c3ncc(-c4cnc(N5CCN(C(=O)CC6(O)CCN(c7ccc(C8CCC(=O)NC8=O)cc7F)CC6)CC5)nc4)cc23)c1F` (racemic) [Example 158, 5-[2-[4-[2-[1-[4-(2,6-dioxo-3-piperidyl)-2-fluoro-phenyl]-4-hydroxy-4-piperidyl]acetyl]piperazin-1-yl]pyrimidin-5-yl]-3-[3-[[ethyl(methyl)sulfamoyl]amino]-2,6-difluoro-benzoyl]-1H-pyrrolo[2,3-b]pyridine] had a DC50 of 2.73 nM. Further, under setting [1], the Emax was 9.38%.
Taken in the same sequence, the figures for `CCN(C)S(=O)(=O)Nc1ccc(F)c(C(=O)c2c[nH]c3ncc(-c4ccc(N5CCN(C(=O)CC6(O)CCN(c7ccc8c(N9CCC(=O)NC9=O)nn(C)c8c7)CC6)CC5)nc4)cc23)c1F` [Example 193, 3-(2,4-dioxohexahydropyrimidin-1-yl)-6-[4-[2-[4-[5-[3-[3-[[ethyl(methyl)sulfamoyl]amino]-2,6-difluoro-benzoyl]-1H-pyrrolo[2,3-b]pyridin-5-yl]-2-pyridyl]piperazin-1-yl]-2-oxo-ethyl]-4-hydroxy-1-piperidyl]-1-methyl-indazole] were 1.7 nM and 7.39%.
Taken in the same sequence, the figures for `CCN(C)S(=O)(=O)Nc1ccc(F)c(C(=O)c2c[nH]c3ncc(-c4ccc(N5CCC(NCC(=O)N6CCC(c7ccc(OC8CCC(=O)NC8=O)cc7)CC6)CC5)cc4)cc23)c1F` (centres unmarked) [Example A99, 5-[4-[4-[[2-[4-[4-(2,6-Dioxopiperidin-3-yl)oxyphenyl]piperidin-1-yl]-2-oxoethyl]amino]piperidin-1-yl]phenyl]-3-[3-[[ethyl(methyl)sulfamoyl]amino]-2,6-difluorobenzoyl]-1H-pyrrolo[2,3-b]pyridine;hydrochloride] were 32 nM and 9%.
The matching figures for `CCN(C)S(=O)(=O)Nc1cccc(C(=O)c2c[nH]c3ncc(-c4ccc(N5CCN(C(=O)CC6(O)CCN(c7ncc(NC8CCC(=O)NC8=O)cc7F)CC6)CC5)cc4)cc23)c1F` (centres unmarked) [Example 120, 5-[4-[4-[2-[1-[5-[(2,6-dioxo-3-piperidyl)amino]-3-fluoro-2-pyridyl]-4-hydroxy-4-piperidyl]acetyl]piperazin-1-yl]phenyl]-3-[3-[[ethyl(methyl)sulfamoyl]amino]-2-fluoro-benzoyl]-1H-pyrrolo[2,3-b]pyridine]: 2.87 nM and 9.99%.
`CCN(C)S(=O)(=O)Nc1ccc(F)c(C(=O)c2c[nH]c3ncc(-c4ccc(N5CCN(C(=O)CN6Cc7ccc(NC8CCC(=O)NC8=O)cc7C6)CC5)nc4)cc23)c1F` (centres unmarked) [Example A37, 5-[6-[4-[2-[5-[(2,6-Dioxopiperidin-3-yl)amino]-1,3-dihydroisoindol-2-yl]acetyl]piperazin-1-yl]pyridin-3-yl]-3-[3-[[ethyl(methyl)sulfamoyl]amino]-2,6-difluorobenzoyl]-1H-pyrrolo[2,3-b]pyridine] yielded a DC50 of 14.6 nM. The Emax under setting [1] worked out at 20.6%.
On to `CCN(C)S(=O)(=O)Nc1ccc(F)c(C(=O)c2c[nH]c3ncc(-c4ccc(CN5CCN(CC(=O)N6CCC(c7ccc(NC8CCC(=O)NC8=O)cc7)CC6)CC5)cc4)cc23)c1F.O=C(O)C(F)(F)F` (centres unmarked) [Example A21, 5-[4-[[4-[2-[4-[4-[(2,6-Dioxopiperidin-3-yl)amino]phenyl]piperidin-1-yl]-2-oxoethyl]piperazin-1-yl]methyl]phenyl]-3-[3-[[ethyl(methyl)sulfamoyl]amino]-2,6-difluorobenzoyl]-1H-pyrrolo[2,3-b]pyridine;2,2,2-trifluoroacetic acid], for which the DC50 is 21 nM. The “HiBit 24 h Emax” value under setting [1] is given as 13%.
The molecule `CCN(C)S(=O)(=O)Nc1ccc(F)c(C(=O)c2c[nH]c3ncc(-c4ccc(N5CCN(C(=O)CC6(O)CCN(c7ccc(NC8CCC(=O)NC8=O)cc7F)CC6)CC5)nc4)cc23)c1F` (centres unmarked) [Example 79, 5-[6-[4-[2-[1-[4-[(2,6-dioxo-3-piperidyl)amino]-2-fluoro-phenyl]-4-hydroxy-4-piperidyl]acetyl]piperazin-1-yl]-3-pyridyl]-3-[3-[[ethyl(methyl)sulfamoyl]amino]-2,6-difluoro-benzoyl]-1H-pyrrolo[2,3-b]pyridine] showed a DC50 of 2.13 nM. The Emax under setting [1] was found to be 9.51%.
Taken in the same sequence, the figures for `CCN(C)S(=O)(=O)Nc1cccc(C(=O)c2c[nH]c3ncc(-c4cnc(N5CCN(C(=O)CN6CCC(c7ccc(NC8CCC(=O)NC8=O)cc7)C(F)(F)C6)CC5)nc4)cc23)c1F` (centres unmarked) [Example 100, 5-[2-[4-[2-[4-[4-[(2,6-dioxo-3-piperidyl)amino]phenyl]-3,3-difluoro-1-piperidyl]acetyl]piperazin-1-yl]pyrimidin-5-yl]-3-[3-[[ethyl(methyl)sulfamoyl]amino]-2-fluoro-benzoyl]-1H-pyrrolo[2,3-b]pyridine] were 9.52 nM and 6.76%.

The values are drawn from patent US12559492B2, “BRAF degraders” (C4 Therapeutics, Inc., priority 2020, dated 2026).
